Measurements as given in patent US11498899B2, “Nitrone herbicides” (FMC Corporation, priority 2016, dated 2022).

Experiments:
[1] = tested on: barnyardgrass (Echinochloa crus-galli); experiment: Test A preemergence, visual injury rating 0-100 (0 no effect, 100 complete control); format: in vivo; conditions: for Barnyardgrass plant response rating: 31 g ai/ha, 0 to 100 scale (0 no effect, 100 complete control), approx. 10 days
[2] = tested on: foxtail, giant (giant foxtail, Setaria faberii); experiment: Test A preemergence, visual injury rating 0-100; format: in vivo; conditions: for Foxtail, Giant plant response rating: 31 g ai/ha, 0 to 100 scale (0 no effect, 100 complete control), approx. 10 days
kochia (Kochia scoparia) [3] = experiment: Test A preemergence, visual injury rating 0-100; format: in vivo; conditions: for Kochia plant response rating: 31 g ai/ha, 0 to 100 scale (0 no effect, 100 complete control), approx. 10 days
[4] = tested on: pigweed (Amaranthus retroflexus); experiment: Test A preemergence, visual injury rating 0-100; format: in vivo; conditions: for Pigweed plant response rating: 31 g ai/ha, 0 to 100 scale (0 no effect, 100 complete control), approx. 10 days
[5] = tested on: ragweed (common ragweed, Ambrosia elatior); experiment: Test A preemergence, visual injury rating 0-100; format: in vivo; conditions: for Ragweed plant response rating: 31 g ai/ha, 0 to 100 scale (0 no effect, 100 complete control), approx. 10 days
[6] = tested on: ryegrass, Italian (Italian ryegrass, Lolium multiflorum); experiment: Test A preemergence, visual injury rating 0-100; format: in vivo; conditions: for Ryegrass, Italian plant response rating: 31 g ai/ha, 0 to 100 scale (0 no effect, 100 complete control), approx. 10 days
[7] = tested on: barnyardgrass (Echinochloa crus-galli); experiment: Test A postemergence, visual injury rating 0-100; format: in vivo; conditions: 0 to 100 scale
[8] = tested on: blackgrass (Alopecurus myosuroides); experiment: Test A postemergence, visual injury rating 0-100; format: in vivo; conditions: 0 to 100 scale
corn (Zea mays) = experiment: Test A postemergence, visual injury rating 0-100; format: in vivo; conditions: 0 to 100 scale
[9] = tested on: foxtail, giant (giant foxtail, Setaria faberii); experiment: Test A postemergence, visual injury rating 0-100; format: in vivo; conditions: 0 to 100 scale
[10] = tested on: galium (catchweed bedstraw, Galium aparine); experiment: Test A postemergence, visual injury rating 0-100; format: in vivo; conditions: 0 to 100 scale
kochia (Kochia scoparia) [11] = experiment: Test A postemergence, visual injury rating 0-100; format: in vivo; conditions: 0 to 100 scale
[12] = tested on: pigweed (Amaranthus retroflexus); experiment: Test A postemergence, visual injury rating 0-100; format: in vivo; conditions: 0 to 100 scale
[13] = tested on: ragweed (common ragweed, Ambrosia elatior); experiment: Test A postemergence, visual injury rating 0-100; format: in vivo; conditions: 0 to 100 scale
[14] = tested on: ryegrass, Italian (Italian ryegrass, Lolium multiflorum); experiment: Test A postemergence, visual injury rating 0-100; format: in vivo; conditions: 0 to 100 scale
[15] = tested on: wheat (Triticum aestivum); experiment: Test A postemergence, visual injury rating 0-100; format: in vivo; conditions: 0 to 100 scale
[16] = tested on: ducksalad (Heteranthera limosa); experiment: Test B flooded paddy test, visual rating 0-100; conditions: Flood, 250 g ai/ha, applied to paddy water, rated after 13 to 15 days
[17] = tested on: barnyardgrass (Echinochloa crus-galli); experiment: Test B flooded paddy test, visual rating 0-100; conditions: Flood, 250 g ai/ha, applied to paddy water, rated after 13 to 15 days
rice (Oryza sativa) = experiment: Test B flooded paddy test, visual rating 0-100 (0 no effect, 100 complete control); conditions: Flood, 250 g ai/ha, applied to paddy water, rated after 13 to 15 days

CC1=[N+]([O-])[C@@H](C(=O)Nc2cccc(F)c2F)[C@H](c2cccc(OC(C)(C)C)c2)C1 [Compound 69]
30: Barnyardgrass plant response rating ([7]; 31 g ai/ha) | Ryegrass, Italian plant response rating ([14]; 31 g ai/ha)
90: Barnyardgrass plant response rating [1] | Barnyardgrass plant response rating (0 to 100 scale) ([1]; 125 g ai/ha) | Foxtail, Giant plant response rating [2] | Foxtail, Giant plant response rating ([9]; 125 g ai/ha) | Barnyardgrass plant response rating (0 to 100 scale) [17]
100: Foxtail, Giant plant response rating (0 to 100 scale) ([2]; 125 g ai/ha)
20: Ryegrass, Italian plant response rating [6] | Foxtail, Giant plant response rating ([9]; 31 g ai/ha) | Galium plant response rating ([10]; 31 g ai/ha) | Pigweed plant response rating ([12]; 125 g ai/ha) | Ragweed plant response rating ([13]; 125 g ai/ha)
0: Kochia plant response rating (kochia (Kochia scoparia) [3]) | Kochia plant response rating (0 to 100 scale) (kochia (Kochia scoparia) [3]; 125 g ai/ha) | Pigweed plant response rating [4] | Pigweed plant response rating (0 to 100 scale) ([4]; 125 g ai/ha) | Ragweed plant response rating [5] | Ragweed plant response rating (0 to 100 scale) ([5]; 125 g ai/ha) | Corn plant response rating (corn (Zea mays); 31 g ai/ha) | Corn plant response rating (corn (Zea mays); 125 g ai/ha) | Kochia plant response rating (kochia (Kochia scoparia) [11]; 31 g ai/ha) | Kochia plant response rating (kochia (Kochia scoparia) [11]; 125 g ai/ha) | Pigweed plant response rating ([12]; 31 g ai/ha) | Ragweed plant response rating ([13]; 31 g ai/ha) | Wheat plant response rating ([15]; 31 g ai/ha) | Wheat plant response rating ([15]; 125 g ai/ha) | Rice plant response rating (0 to 100 scale) (rice (Oryza sativa))
40: Galium plant response rating ([10]; 125 g ai/ha)
95: Ducksalad plant response rating (0 to 100 scale) [16]
70: Barnyardgrass plant response rating ([7]; 125 g ai/ha) | Blackgrass plant response rating ([8]; 125 g ai/ha) | Ryegrass, Italian plant response rating ([14]; 125 g ai/ha)
80: Ryegrass, Italian plant response rating (0 to 100 scale) ([6]; 125 g ai/ha)
10: Blackgrass plant response rating ([8]; 31 g ai/ha)

CC1=[N+]([O-])[C@@H](C(=O)Nc2cccc(F)c2F)[C@H](c2cccc(Oc3ncc(F)cc3F)c2)C1 [Compound 70]
30: Blackgrass plant response rating ([8]; 125 g ai/ha) | Galium plant response rating ([10]; 125 g ai/ha)
90: Foxtail, Giant plant response rating (0 to 100 scale) ([2]; 125 g ai/ha)
0: Kochia plant response rating (kochia (Kochia scoparia) [3]) | Kochia plant response rating (0 to 100 scale) (kochia (Kochia scoparia) [3]; 125 g ai/ha) | Pigweed plant response rating [4] | Pigweed plant response rating (0 to 100 scale) ([4]; 125 g ai/ha) | Ragweed plant response rating [5] | Ragweed plant response rating (0 to 100 scale) ([5]; 125 g ai/ha) | Ryegrass, Italian plant response rating [6] | Ryegrass, Italian plant response rating (0 to 100 scale) ([6]; 125 g ai/ha) | Blackgrass plant response rating ([8]; 31 g ai/ha) | Corn plant response rating (corn (Zea mays); 31 g ai/ha) | Corn plant response rating (corn (Zea mays); 125 g ai/ha) | Foxtail, Giant plant response rating ([9]; 31 g ai/ha) | Foxtail, Giant plant response rating ([9]; 125 g ai/ha) | Galium plant response rating ([10]; 31 g ai/ha) | Kochia plant response rating (kochia (Kochia scoparia) [11]; 31 g ai/ha) | Kochia plant response rating (kochia (Kochia scoparia) [11]; 125 g ai/ha) | Pigweed plant response rating ([12]; 31 g ai/ha) | Ragweed plant response rating ([13]; 31 g ai/ha) | Ragweed plant response rating ([13]; 125 g ai/ha) | Ryegrass, Italian plant response rating ([14]; 31 g ai/ha) | Ryegrass, Italian plant response rating ([14]; 125 g ai/ha) | Wheat plant response rating ([15]; 31 g ai/ha) | Wheat plant response rating ([15]; 125 g ai/ha) | Ducksalad plant response rating (0 to 100 scale) [16] | Barnyardgrass plant response rating (0 to 100 scale) [17] | Rice plant response rating (0 to 100 scale) (rice (Oryza sativa))
20: Foxtail, Giant plant response rating [2] | Barnyardgrass plant response rating ([7]; 31 g ai/ha) | Pigweed plant response rating ([12]; 125 g ai/ha)
40: Barnyardgrass plant response rating [1]
80: Barnyardgrass plant response rating (0 to 100 scale) ([1]; 125 g ai/ha)
70: Barnyardgrass plant response rating ([7]; 125 g ai/ha)

CC1=[N+]([O-])[C@@H](C(=O)Nc2cccc(F)c2F)[C@H](c2cccc(Oc3ccc(F)cn3)c2)C1 [Compound 84]
30: Foxtail, Giant plant response rating (0 to 100 scale) ([2]; 125 g ai/ha) | Pigweed plant response rating (0 to 100 scale) ([4]; 500 g ai/ha) | Ragweed plant response rating ([13]; 500 g ai/ha)
50: Kochia plant response rating (0 to 100 scale) (kochia (Kochia scoparia) [3]; 500 g ai/ha) | Foxtail, Giant plant response rating ([9]; 125 g ai/ha) | Wheat plant response rating ([15]; 500 g ai/ha)
90: Barnyardgrass plant response rating (0 to 100 scale) ([1]; 500 g ai/ha) | Foxtail, Giant plant response rating (0 to 100 scale) ([2]; 500 g ai/ha) | Barnyardgrass plant response rating ([7]; 500 g ai/ha) | Blackgrass plant response rating ([8]; 125 g ai/ha) | Blackgrass plant response rating ([8]; 500 g ai/ha) | Ryegrass, Italian plant response rating ([14]; 500 g ai/ha)
40: Barnyardgrass plant response rating ([7]; 125 g ai/ha) | Corn plant response rating (corn (Zea mays); 500 g ai/ha) | Galium plant response rating ([10]; 125 g ai/ha) | Galium plant response rating ([10]; 500 g ai/ha) | Pigweed plant response rating ([12]; 500 g ai/ha)
0: Kochia plant response rating (0 to 100 scale) (kochia (Kochia scoparia) [3]; 125 g ai/ha) | Pigweed plant response rating (0 to 100 scale) ([4]; 125 g ai/ha) | Ragweed plant response rating (0 to 100 scale) ([5]; 125 g ai/ha) | Ryegrass, Italian plant response rating (0 to 100 scale) ([6]; 125 g ai/ha) | Corn plant response rating (corn (Zea mays); 125 g ai/ha) | Kochia plant response rating (kochia (Kochia scoparia) [11]; 125 g ai/ha) | Ragweed plant response rating ([13]; 125 g ai/ha) | Wheat plant response rating ([15]; 125 g ai/ha) | Ducksalad plant response rating (0 to 100 scale) [16] | Barnyardgrass plant response rating (0 to 100 scale) [17] | Rice plant response rating (0 to 100 scale) (rice (Oryza sativa))
10: Barnyardgrass plant response rating (0 to 100 scale) ([1]; 125 g ai/ha) | Pigweed plant response rating ([12]; 125 g ai/ha)
80: Ryegrass, Italian plant response rating (0 to 100 scale) ([6]; 500 g ai/ha)
70: Foxtail, Giant plant response rating ([9]; 500 g ai/ha)
20: Ragweed plant response rating (0 to 100 scale) ([5]; 500 g ai/ha) | Kochia plant response rating (kochia (Kochia scoparia) [11]; 500 g ai/ha) | Ryegrass, Italian plant response rating ([14]; 125 g ai/ha)

CC1=[N+]([O-])C(C(=O)Nc2cccc(F)c2F)C(c2cccc(Cl)n2)C1 (centres unmarked) [Compound 89]
40: Barnyardgrass plant response rating (0 to 100 scale) ([1]; 500 g ai/ha)
20: Barnyardgrass plant response rating ([7]; 125 g ai/ha)
30: Foxtail, Giant plant response rating (0 to 100 scale) ([2]; 500 g ai/ha) | Barnyardgrass plant response rating ([7]; 500 g ai/ha) | Ducksalad plant response rating (0 to 100 scale) [16]
0: Barnyardgrass plant response rating (0 to 100 scale) ([1]; 125 g ai/ha) | Foxtail, Giant plant response rating (0 to 100 scale) ([2]; 125 g ai/ha) | Kochia plant response rating (0 to 100 scale) (kochia (Kochia scoparia) [3]; 125 g ai/ha) | Kochia plant response rating (0 to 100 scale) (kochia (Kochia scoparia) [3]; 500 g ai/ha) | Pigweed plant response rating (0 to 100 scale) ([4]; 125 g ai/ha) | Pigweed plant response rating (0 to 100 scale) ([4]; 500 g ai/ha) | Ragweed plant response rating (0 to 100 scale) ([5]; 125 g ai/ha) | Ragweed plant response rating (0 to 100 scale) ([5]; 500 g ai/ha) | Ryegrass, Italian plant response rating (0 to 100 scale) ([6]; 125 g ai/ha) | Ryegrass, Italian plant response rating (0 to 100 scale) ([6]; 500 g ai/ha) | Blackgrass plant response rating ([8]; 125 g ai/ha) | Blackgrass plant response rating ([8]; 500 g ai/ha) | Corn plant response rating (corn (Zea mays); 125 g ai/ha) | Corn plant response rating (corn (Zea mays); 500 g ai/ha) | Foxtail, Giant plant response rating ([9]; 125 g ai/ha) | Foxtail, Giant plant response rating ([9]; 500 g ai/ha) | Galium plant response rating ([10]; 125 g ai/ha) | Galium plant response rating ([10]; 500 g ai/ha) | Kochia plant response rating (kochia (Kochia scoparia) [11]; 125 g ai/ha) | Kochia plant response rating (kochia (Kochia scoparia) [11]; 500 g ai/ha) | Pigweed plant response rating ([12]; 125 g ai/ha) | Pigweed plant response rating ([12]; 500 g ai/ha) | Ragweed plant response rating ([13]; 125 g ai/ha) | Ragweed plant response rating ([13]; 500 g ai/ha) | Ryegrass, Italian plant response rating ([14]; 125 g ai/ha) | Ryegrass, Italian plant response rating ([14]; 500 g ai/ha) | Wheat plant response rating ([15]; 125 g ai/ha) | Wheat plant response rating ([15]; 500 g ai/ha) | Barnyardgrass plant response rating (0 to 100 scale) [17] | Rice plant response rating (0 to 100 scale) (rice (Oryza sativa))
